These are literature values, as cited in PMC2686615 (International Immunology, 2009).

One data set concerns HLA-DQ transgenic mice. The following applies: immunization with peptides; cited from earlier work.
The next data set concerns NOD.DQ8 mice. As to conditions: oral response to gliadin, 26 peptides tested; cited from earlier work.

For ENVVVKVYTV [allergen P2 102–110], the T cell response result in the data set on HLA-DQ transgenic mice is reported as “elicited T cell responses”.

Regarding QSTYQLLQE [gliadin 147–155], in the data set on NOD.DQ8 mice, the T cell response result is listed as “negative”.

As to VVTVKVMGD [allergen P2 105–113], in the data set on HLA-DQ transgenic mice, the T cell response entry is “failed to stimulate T cell responses”.
